First: NC(=O)c1ccc(F)c2c1C[C@@H](N(CCCc1c[nH]c3c(F)cc(F)cc13)CC1CC1)CO2
Second: O=C(Nc1ccc(F)cc1F)NC1(c2cccs2)CCCCC1
The melting point of the first is lower: 147 to 151 °C for the first, 175 to 177 °C for the second.

First: Nc1ccc(F)cc1-c1ccc(Cl)c(Cl)c1
Second: CCOc1ccc(-c2noc3c(Cl)c(O)ccc23)c(F)c1
The melting point of the first is lower: 58 °C for the first, 170 to 172 °C for the second.

First: c1ccc(NC2CCCN2Cc2c[nH]c3ccccc23)cc1 (stereo not given)
Second: O=C(CNCc1ccccc1)Nc1cccc2[nH]ccc12
The melting point of the first is lower: 150 to 151 °C for the first, 158 to 161 °C for the second.

Compared with `Cc1cc(C)n(-c2nc(Nc3cccc4cccnc34)c3ccccc3n2)n1`, `Cn1ncnc1COc1nn2c(-c3c(F)cccc3F)nncc2c1-c1ccccc1` is lower in melting point: 184 to 185 °C for the first, 179 °C for the second.

Compared with `O=[N+]([O-])C=C1NCCCS1`, `C=CCOc1ccccc1OCC(O)CN1CCC(N2CCCNC2=O)CC1` (stereo not given) is higher in melting point: 76 to 78 °C for the first, 122 to 125 °C for the second.

Compared with `NCCOc1cc(Cl)cc(Cl)c1`, `CCn1c(COC(=O)NC(C)=O)nc(C(C)C)c1Sc1cc(Cl)cc(Cl)c1` is higher in melting point: 86 to 89 °C for the first, 163 to 164 °C for the second.

First: CSc1nccn1CC(=O)O
Second: CCNC(=O)n1c([Si](C)(C)C)cc2ccccc21
The melting point of the first is higher: 176 °C for the first, 96 to 99 °C for the second.

Compared with `COc1cc(Nc2nccc(NC3CCCCC3)n2)cc(OC)c1OC`, `COc1cc2c(cc1OC)C(C)=[N+]([O-])C(c1cccs1)N2` (stereo not given) is higher in melting point: 128 °C for the first, 180 to 185 °C for the second.

First: CC(C)C(=O)NCCCC1COCc2nc3c(N)nc4ccccc4c3n21 (stereo not given)
Second: CCc1cc(CCc2nc3ccccc3o2)c(=O)[nH]c1C
The melting point of the first is higher: 207 to 208 °C for the first, 155 to 156 °C for the second.

First: CC(C)(C)[Si](C)(C)Oc1ccc(N)c([N+](=O)[O-])c1
Second: CC1(C)CC(=O)C(C(=O)c2ccc(Cl)cc2[N+](=O)[O-])C(=O)N1 (stereo not given)
The melting point of the first is lower: 80 to 83 °C for the first, 162 °C for the second.

First: O=C(CCCCl)N(c1ccccc1)c1ccccc1
Second: BrCCCCCCCn1c(-c2ccccc2)nc(-c2ccccc2)c1-c1ccccc1
The melting point of the first is higher: 78 to 79 °C for the first, 69 to 71 °C for the second.

First: CC(=O)Oc1ccc2c(c1)Cc1cc(C(C)=O)ccc1-2
Second: CCCCc1c(C(=O)O)ccc2ccc(OC)cc12
The melting point of the first is higher: 126 to 128 °C for the first, 123 to 125 °C for the second.

`Nc1ccc2nc(O)c(O)nc2c1N` and `COc1ccc(-n2c(=O)c(O)nc3cccnc32)cc1` cannot be ordered by melting point: over 300 °C for the first, over 300 °C for the second.

First: CC(C)(C)[C@H](N)C(N)=O
Second: CC(C)(C)C(NC(=O)c1ccc(Cl)cc1)NC(=NC#N)Nc1cc(F)cc(F)c1 (stereo not given)
The melting point of the first is lower: 104 to 105 °C for the first, 196 to 198 °C for the second.

First: Cc1cc2c(cc1O)C(C)(C)CC(C)(c1cc(O)c(C)cc1O)O2 (stereo not given)
Second: Cc1ccc(Cc2cc(C)c(C)c(=O)n2O)c(C)c1
The melting point of the first is higher: 190 °C for the first, 141 °C for the second.

First: COCOc1ccc(C(=O)OC)c(OCc2ccc(Cl)cc2Cl)c1C
Second: COC(=O)c1cc(Cl)cc(OC)c1O
The melting point of the first is lower: 98.8 to 99 °C for the first, 105 °C for the second.

First: CS(=O)(=O)c1ccc(-c2ccccc2Oc2ccccc2)cc1
Second: Cc1ccc(OC(=CC(=O)c2ccc(Br)cc2)C(=O)c2ccc(Br)cc2)cc1
The melting point of the first is lower: 130 to 131 °C for the first, 137 to 138 °C for the second.

First: CC(=O)Nc1ccc(-c2cn(-c3nc(-c4ccc(C(F)(F)F)cc4)cc(C(F)(F)F)n3)cn2)cn1
Second: O=C1N(Cc2ccccc2C(F)(F)F)c2ccccc2C12COc1cc3[nH]ncc3cc12 (stereo not given)
The melting point of the first is higher: 314 °C for the first, 124 to 126 °C for the second.

`O=C(NCc1ccn(-c2cc3c(cc2[N+](=O)[O-])[nH]c(=O)c(=O)n3C2CCCCC2)c1)Nc1ccncc1` and `Cc1nn(-c2ccccn2)c2[nH]c3ccc(C(=O)O)cc3c(=O)c12` cannot be ordered by melting point: over 200 °C for the first, over 300 °C for the second.

Compared with `CCCCCCCCCCCCC[C@@H](CC(N)=O)OC(=O)[C@H](CCCC(=O)OCc1ccccc1)NC(=O)c1cnc2ccccc2c1`, `O=C(c1ccccc1)c1cc([N+](=O)[O-])ccc1O` is higher in melting point: 85 to 87 °C for the first, 125 to 126 °C for the second.

Compared with `COc1cc2c(cc1OC)-c1c(-c3ccccc3)sc(=N)n1CC2`, `COc1cc(OC)c2c(c1)N(Cc1ccccn1)C(=O)C21COc2cc3c(cc21)OCCO3` (stereo not given) is higher in melting point: 123 to 125 °C for the first, 187 to 188 °C for the second.

First: CN(c1nccc(-n2nnc3ccccc32)n1)[C@H]1CC[C@H](N(C)S(C)(=O)=O)CC1
Second: Cc1cccc(C(=O)O)c1OC1CCOC1=O (stereo not given)
The melting point of the first is higher: 204 °C for the first, 129 to 131 °C for the second.

First: CCCCN(CCCC)Cc1nc(-c2ncn3c2CN(C)C(=O)c2c(Cl)cccc2-3)no1
Second: CN1CCC2(CC1)NC(=O)N(c1ccc(C#N)c(C(F)(F)F)c1)C2=N
The melting point of the first is lower: 140 to 142 °C for the first, 199 to 200 °C for the second.

First: COC(=O)CCCCCCc1ncsc1C=O
Second: CC=COC(=O)c1c(S(=O)(=O)NC(=O)Nc2nc(C)cc(C)n2)c(C)nn1C
The melting point of the first is lower: 60 to 62 °C for the first, 180 to 183 °C for the second.

First: O=C1NC(=O)C(Sc2ccc(F)cc2)S1 (stereo not given)
Second: Cc1cn(C2CC(O)C(CO)(N=[N+]=[N-])O2)c(=O)[nH]c1=O (stereo not given)
The melting point of the first is lower: 99 to 100 °C for the first, 175 to 176 °C for the second.
